Data set [1] is described as follows: LNP average particle size and polydispersity by dynamic light scattering (Malvern Zetasizer). In kind it is physicochemical. In a few lines: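 LNPs diluted in PBS to a count rate of about 200–400 kcps and measured by dynamic light scattering. Size given as intensity-weighted Z-average diameter, with number-average diameter and polydispersity index also reported.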

The test system of data set [2] is TTR. The data set is described as follows: TTR editing in mouse liver by NGS after i.v. LNP delivery of Cas9 mRNA and sgRNA. It counts as in vivo. Conditions: for TTR Editing (%) / % Editing (TTR, liver) / Editing Mean % Indel / Editing %: CD-1 female mice; for % Editing (TTR, liver): Example 55: 0.1 mpk i.v.; for Editing %: Example 56: 0.1 mpk i.v., G282. In a few lines:
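Cas9 mRNA and chemically modified sgRNA were co-formulated in LNPs made of an ionizable amine lipid, DSPC, cholesterol and PEG-2k-DMG at a 6.0 N:P ratio. CD-1 female mice aged 6-10 weeks received tail-vein injections of 0.2 mL. Liver genomic DNA was then amplified around the target site and sequenced on an Illumina MiSeq, with editing calculated as indel-containing reads over total reads.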

The mark [3] stands for this setting: Table 3, Example 52: LNP, Cas9 mRNA + sgRNA (G650) 1:1 w/w, N:P 6.0.
Setting [4] is: Table 5, Example 53: LNP with gRNA G282 (TTR).
Where [5] appears, read: Table 5, Example 53: LNP with gRNA G650 (B2M).
Where [6] appears, read: Table 10, Example 55: LNP, G282 1:1.
Setting [7] is: Table 14, Example 58: LNP, G282 1:1.
[8] abbreviates: Table 16, Example 59: LNP, G282 1:1.
[9] abbreviates: Table 18, Example 60: LNP, G502 1:2.
The mark [10] stands for this setting: Table 22, Example 62: LNP, G282 1:2.
Setting [11] is: Table 24, Example 63: LNP, G282 1:1.
Where [12] appears, read: Example 53: 0.1 mpk i.v., 6 days post-dose, G282 1:1.
The mark [13] stands for this setting: Example 53: 0.3 mpk i.v., 6 days post-dose, G282 1:1.
[14] abbreviates: Example 58: 0.1 mpk i.v., 6 days post-dose, G282 1:1.
Where [15] appears, read: Example 59: 0.1 mpk i.v., 7 days post-dose, G282 1:1.
Setting [16] is: Example 60: 0.1 mpk i.v., 6 days post-dose, G502 1:2.
[17] abbreviates: Example 62: 0.03 mpk i.v., 7 days post-dose, G282 1:2.
[18] abbreviates: Example 62: 0.1 mpk i.v., 7 days post-dose, G282 1:2.
Setting [19] is: Example 63: 0.03 mpk i.v., 7 days post-dose, G282 1:1.
Where [20] appears, read: Example 63: 0.1 mpk i.v., 7 days post-dose, G282 1:1.
[21] abbreviates: Table 12, Example 56: LNP, G282.
Where [22] appears, read: Table 20, Example 61: LNP, G282 1:1.
Setting [23] is: Example 61: 0.1 mpk i.v., 7 days post-dose, G282 1:1.
Where [24] appears, read: Table 8, Example 54: LNP, G650 (B2M) 1:1.
Setting [25] is: Table 26, Example 64: LNP, G282 1:1.

With `CCCCCCCCCOC(=O)CCCCCCCN(CCO)CCCCCCCC(OCCCCCCCC)OCCCCCCCC` [Compound 1, nonyl 8-((8,8-bis(octyloxy)octyl)(2-hydroxyethyl)amino octanoate], the “Num Ave Size (nm)” value in data set [1] (setting [3]) was 57.04 nm; in data set [1] (setting [4]), 61.19 nm; in data set [1] (setting [5]), 65.11 nm; in data set [1] (setting [6]) it was 55.38 nm; in data set [1] (setting [7]) it was 55.38 nm; in data set [1] (setting [8]), 57.78 nm. For the same compound, the “Num Ave Size (nm)” value in data set [1] (setting [9]) is listed as 58.01 nm; in data set [1] (setting [10]), 58.01 nm; in data set [1] (setting [11]), 52 nm. Besides, the PDI was found to be 0.105 in data set [1] (setting [3]); 0.008 in data set [1] (setting [4]); 0.028 in data set [1] (setting [5]); 0.05 in data set [1] (setting [6]); 0.05 in data set [1] (setting [7]); 0.04 in data set [1] (setting [8]). The values for the PDI in data set [1] (setting [9]), in data set [1] (setting [10]) and in data set [1] (setting [11]) were 0.037, 0.037 and 0.06, respectively. For the same compound, the “Z-Ave Size (nm)” value is 79.49 nm in data set [1] (setting [3]); 75.77 nm in data set [1] (setting [4]); 80.96 nm in data set [1] (setting [5]); 69.94 nm in data set [1] (setting [6]); 69.94 nm in data set [1] (setting [7]); 72.21 nm in data set [1] (setting [8]). Further, the “Z-Ave Size (nm)” value turned out to be 74.5 nm in data set [1] (setting [9]), 74.5 nm in data set [1] (setting [10]) and 70 nm in data set [1] (setting [11]). For the same compound, the “TTR Editing (%)” value in data set [2] (setting [12]) was 55.4%; in data set [2] (setting [13]), 59.3%. The “TTR editing in the liver compared with Compound 19 formulations” value in data set [2] (Example 53 text: 0.1 and 0.3 mpk) was “higher TTR editing in the liver than Compound 19 formulations at each dose”. In data set [2] (Example 53 text: both the 0.1 mpk and 0.3 mpk doses), the “editing of TTR” value is 55-60%. Besides, the “% Editing (TTR, liver)” value in data set [2] (7 days post-dose, G282 1:1) is reported as 43%. Further, the “Editing Mean % Indel” value in data set [2] (setting [14]) was determined as 29.5%; in data set [2] (setting [15]), 41.6%; in data set [2] (setting [16]), 46.3%; in data set [2] (setting [17]), 8.9%; in data set [2] (setting [18]) it was 34.2%; in data set [2] (setting [19]), 10.86%. In data set [2] (setting [20]), the “Editing Mean % Indel” value came to 41.10%.
Turning to `CCCCCCCCOC(CCCCCCCN(CCO)CCCCCCCC(=O)OC(CC)CCCCCCCC)OCCCCCCCC` (centres unmarked) [Compound 17, undecan-3-yl 8-((8,8-bis(octyloxy)octyl)(2-hydroxyethyl)amino)octanoate], the “Num Ave Size (nm)” value in data set [1] (setting [7]) is on record as 54.25 nm; in data set [1] (setting [10]) it was 44.93 nm. In addition, the results for the PDI in data set [1] (setting [7]) and in data set [1] (setting [10]) were 0.056 and 0.072, respectively. The “Z-Ave Size (nm)” value is 68.72 nm in data set [1] (setting [7]) and 62.89 nm in data set [1] (setting [10]). The “Editing Mean % Indel” value in data set [2] (setting [14]) was determined as 40.8%; in data set [2] (setting [17]), 4.0%; in data set [2] (setting [18]), 45.9%.
In the case of `CCCCCCCCCOC(=O)CCCCCCCN(CCO)CCCCCCCC(=O)OC(CCCCCCCC)CCCCCCCC` [Compound 18, heptadecan-9-yl 8-((2-hydroxyethyl)(8-(nonyloxy)-8-oxooctyl)amino)octanoate, reference compound], the “Num Ave Size (nm)” value in data set [1] (setting [21]) is given as 69.77 nm; in data set [1] (setting [8]) it was 53.06 nm; in data set [1] (setting [22]), 52.25 nm. Further, the PDI amounted to 0.112 in data set [1] (setting [21]), 0.093 in data set [1] (setting [8]) and 0.083 in data set [1] (setting [22]). In addition, the “Z-Ave Size (nm)” value in data set [1] (setting [21]) worked out at 106.6 nm; in data set [1] (setting [8]), 75.79 nm; in data set [1] (setting [22]) it was 74.67 nm. This compound had an Editing % in data set [2] (7 days post-dose) of 33%. The “Editing Mean % Indel” value in data set [2] (setting [15]) stood at 41.6%; in data set [2] (setting [23]) it was 26.8%.
Consider `CCCCC/C=C\C/C=C\CCCCCCCC(=O)OCC(COC(=O)CCC(OCCCCCCCC)OCCCCCCCC)COC(=O)OCCCN(CC)CC` (centres unmarked) [Compound 19, 3-((4,4-bis(octyloxy)butanoyl)oxy)-2-(((((3-(diethylamino)propoxy))-carbonyl)oxy)methyl)propyl (9Z,12Z)-octadeca-9,12-dienoate, reference compound], for which the “Num Ave Size (nm)” value came to 64.97 nm in data set [1] (setting [3]); 62.86 nm in data set [1] (setting [4]); 64.97 nm in data set [1] (setting [5]); 64.97 nm in data set [1] (setting [24]); 64.95 nm in data set [1] (setting [6]); 63.19 nm in data set [1] (setting [21]). The “Num Ave Size (nm)” value was 71.1 nm in data set [1] (setting [7]); 71.49 nm in data set [1] (setting [8]); 73.15 nm in data set [1] (setting [9]); 71.49 nm in data set [1] (setting [22]); 73.15 nm in data set [1] (setting [10]); 66 nm in data set [1] (setting [11]). In addition, the “Num Ave Size (nm)” value in data set [1] (setting [25]) was 65 nm. Moreover, the PDI in data set [1] (setting [3]) is recorded as 0.056; in data set [1] (setting [4]), 0.015; in data set [1] (setting [5]) it was 0.056; in data set [1] (setting [24]), 0.056; in data set [1] (setting [6]) it was 0.025; in data set [1] (setting [21]) it was 0.047. For the same compound, the PDI in data set [1] (setting [7]) is 0.007; in data set [1] (setting [8]) it was 0.02; in data set [1] (setting [9]), 0.033; in data set [1] (setting [22]), 0.02; in data set [1] (setting [10]), 0.033; in data set [1] (setting [11]) it was 0.03. Moreover, in data set [1] (setting [25]), the PDI is on record as 0.03. In addition, the “Z-Ave Size (nm)” value was 82.71 nm in data set [1] (setting [3]); 79.83 nm in data set [1] (setting [4]); 82.71 nm in data set [1] (setting [5]); 82.71 nm in data set [1] (setting [24]); 81.76 nm in data set [1] (setting [6]); 79.18 nm in data set [1] (setting [21]). For the same compound, the “Z-Ave Size (nm)” value in data set [1] (setting [7]) is listed as 84.99 nm; in data set [1] (setting [8]), 86.84 nm; in data set [1] (setting [9]), 88.6 nm; in data set [1] (setting [22]) it was 86.84 nm; in data set [1] (setting [10]) it was 88.6 nm; in data set [1] (setting [11]), 82 nm. Further, the “Z-Ave Size (nm)” value in data set [1] (setting [25]) is recorded as 83 nm. The “TTR Editing (%)” value turned out to be 13.8% in data set [2] (setting [12]) and 45.9% in data set [2] (setting [13]). The “% Editing (TTR, liver)” value in data set [2] (7 days post-dose, G282 1:1) amounted to 29%. This compound registered an Editing % in data set [2] (7 days post-dose) of 15%. The “Editing Mean % Indel” value in data set [2] (setting [15]) was 29.3%; in data set [2] (setting [16]) it was 41.4%; in data set [2] (setting [23]), 35.9%; in data set [2] (setting [17]), 7.0%; in data set [2] (setting [18]), 27.1%; in data set [2] (setting [19]), 30.18%. The “Editing Mean % Indel” value in data set [2] (setting [20]) is on record as 56.02%; in data set [2] (Example 64: Dose 0.03 mpk (table) i.v., 7 days post-dose, G282 1:1), 5.2%.
As to `CCCCCCCCOC(CCCCCCCN(CCO)CCCCCCCC(=O)OC(CC)CCCCCC)OCCCCCCCC` (centres unmarked) [Compound 28, nonan-3-yl 8-((8,8-bis(octyloxy)octyl)(2-hydroxyethyl)amino)octanoate], in data set [1] (setting [11]), the “Num Ave Size (nm)” value was 42 nm, the PDI came to 0.30 and the “Z-Ave Size (nm)” value worked out at 78 nm. For the same compound, the “Editing Mean % Indel” value in data set [2] (setting [19]) is on record as 20.74%. Further, the “Editing Mean % Indel” value in data set [2] (setting [20]) is reported as 42.36%.

Values taken from patent publication US20260225997A1, “IONIZABLE AMINE LIPIDS” (Intellia Therapeutics, Inc., priority 2018, published 2026).
